Laboratory results from patent publication US9181223B2, “2-aminopyrimidin-6-ones and analogs exhibiting anti-cancer and anti-proliferative activities” (Deciphera Pharmaceuticals, LLC, priority 2013, dated 2015).

Tests used:
[1] = target: T1, unphosphorylated c-KIT kinase (uKIT, Seq. ID no. 2) (Homo sapiens, UniProt P10721); test: uKit kinase assay (ADP production coupled to pyruvate kinase/lactate dehydrogenase); assay type: biochemical; conditions: enzymatic assay, ATP 2000 μM; read-out: uKIT
T1 construct: uKit with N-terminal GST fusion used for screening
T1 sequence (P10721 with tags, fused parts or gaps): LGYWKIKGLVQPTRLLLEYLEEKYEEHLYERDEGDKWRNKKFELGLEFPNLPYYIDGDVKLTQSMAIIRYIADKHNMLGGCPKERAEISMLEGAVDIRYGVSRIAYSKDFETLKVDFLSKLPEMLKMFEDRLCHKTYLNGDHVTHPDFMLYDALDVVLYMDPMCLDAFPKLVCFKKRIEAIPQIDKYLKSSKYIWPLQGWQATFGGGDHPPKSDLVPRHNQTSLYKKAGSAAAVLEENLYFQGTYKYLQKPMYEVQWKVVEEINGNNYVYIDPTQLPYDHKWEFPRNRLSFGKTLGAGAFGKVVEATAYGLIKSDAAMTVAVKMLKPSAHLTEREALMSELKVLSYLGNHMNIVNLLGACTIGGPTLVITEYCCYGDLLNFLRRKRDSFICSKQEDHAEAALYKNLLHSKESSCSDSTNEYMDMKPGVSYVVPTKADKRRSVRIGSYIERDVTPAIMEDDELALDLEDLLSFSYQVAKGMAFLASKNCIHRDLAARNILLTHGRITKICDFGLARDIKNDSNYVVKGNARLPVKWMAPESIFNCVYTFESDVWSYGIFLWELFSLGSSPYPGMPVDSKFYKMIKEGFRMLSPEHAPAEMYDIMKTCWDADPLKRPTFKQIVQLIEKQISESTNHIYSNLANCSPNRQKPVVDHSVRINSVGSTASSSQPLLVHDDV
Experimental: In this assay, the oxidation of NADH (thus the decrease at A340 nm) was continuously monitored spectrophometrically. […] The inhibition reaction was started by mixing serial diluted test compound with the above reaction mixture. The absorption at 340 nm was monitored continuously for 4 hours at 30° C. on Synergy 2 plate reader (BioTech).

[2] = target: T2, unphosphorylated PDGFRβ kinase (uPDGFRβ, Seq. ID No. 3) (Homo sapiens, UniProt P09619); test: uPDGFRβ kinase assay (ADP production coupled to pyruvate kinase/lactate dehydrogenase); assay type: biochemical; conditions: enzymatic assay, ATP 500 μM
T2 construct: purchased DeCode
T2 sequence (P09619 557-1106): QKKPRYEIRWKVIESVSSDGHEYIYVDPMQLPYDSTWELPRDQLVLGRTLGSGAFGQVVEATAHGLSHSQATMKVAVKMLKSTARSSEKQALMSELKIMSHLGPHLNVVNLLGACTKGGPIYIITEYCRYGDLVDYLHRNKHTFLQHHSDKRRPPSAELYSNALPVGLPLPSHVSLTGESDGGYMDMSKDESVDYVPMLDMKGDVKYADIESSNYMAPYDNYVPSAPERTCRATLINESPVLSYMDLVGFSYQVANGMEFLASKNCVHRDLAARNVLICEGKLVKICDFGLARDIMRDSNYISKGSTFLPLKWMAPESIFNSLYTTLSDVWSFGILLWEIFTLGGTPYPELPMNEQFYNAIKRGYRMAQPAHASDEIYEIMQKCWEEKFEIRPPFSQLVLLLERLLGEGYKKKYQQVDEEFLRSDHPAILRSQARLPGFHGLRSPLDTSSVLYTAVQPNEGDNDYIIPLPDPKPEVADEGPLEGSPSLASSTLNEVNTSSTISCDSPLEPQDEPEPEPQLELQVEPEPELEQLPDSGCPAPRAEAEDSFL
Experimental: Unphosphorylated […]β) Kinase (Seq. ID No. 3) Assay Activity of unphosphorylated PDGFRβ kinase ([…] No. 3) was determined by following the production of ADP from the kinase reaction with ATP and poly E4Y as substrates through coupling with the pyruvate kinase/lactate dehydrogenase system (e.g., Schindler et al. Science (2000) 289: 1938-1942). In this assay, the oxidation of NADH (thus the decrease at A340 nm) was continuously monitored spectrophometrically. The reaction mixture (100 μL) contained PDGFRβ (DeCode, 15.7 nM), polyE4Y (2.5 mg/mL), MgCl2 (10 mM), pyruvate kinase (4 units), lactate dehydrogenase (0.7 units), phosphoenol pyruvate (1 mM) and NADH (0.28 mM) and ATP (500 μM) in a 90 mM Tris buffer containing 0.2% octyl-glucoside and 1% DMSO, at pH 7.5. The inhibition reaction was started by mixing serial diluted test compound with the above reaction mixture. The absorption at 340 nm was monitored continuously for 4 h at 30° C. on a Polarstar Optima or Synergy 2 plate reader. The reaction rate was calculated using the 1.5 to 2.5 h time frame. Percent inhibition was obtained by comparison of reaction rate with that of a control (i.e. with no test compound). IC50 values were calculated from a series of percent inhibition values determined at a range of inhibitor concentrations using software routines as implemented in the GraphPad Prism software package.

M-NFS-60 cells = test: M-NFS-60 cell proliferation assay (resazurin); assay type: cell-based; conditions: 67 h incubation
Experimental: M-NFS-60 cells (catalog #CRL-1838) were obtained from the American Type Culture Collection (ATCC, Manassas, Va.). Briefly, cells were grown in suspension in RPMI 1640 medium supplemented with 10% characterized fetal bovine serum (Invitrogen, Carlsbad, Calif.), 0.05 mM 2-mercaptoethanol, and 20 ng/mL mouse recombinant macrophage colony stimulating factor (M-CSF) at 37° C., 5% CO2, and 95% humidity. Cells were allowed to expand until reaching saturation at which point they were subcultured or harvested for assay use.
M-NFS-60 Cell Proliferation Assay
A serial dilution of test compound was dispensed into a 384-well black clear bottom plate (Corning, Corning, N.Y.). Two thousand five hundred cells were added per well in 50 μL complete growth medium. Plates were incubated for 67 h at 37° C., 5% CO2, and 95% humidity. At the end of the incubation period 10 μL of a 440 µM solution of resazurin (Sigma, St. Louis, Mo.) in PBS was added to each well and incubated for an additional 5 h at 37° C., 5% CO2, and 95% humidity. Plates were read on a Synergy2 reader (Biotek, Winooski, Vt.) using an excitation of 540 nm and an emission of 600 nm. IC50 values were calculated from a series of percent inhibition values determined at a range of inhibitor concentrations using software routines as implemented in the GraphPad Prism software package.

osteoclast precursors = test: Osteoclast tartrate-resistant acid phosphatase assay; assay type: cell-based; conditions: tartrate-resistant acid phosphatase activity, RANKL and M-CSF, 7-14 days
Experimental: Osteoclast Tartrate-Resistant Acid Phosphatase Assay
A serial dilution of test compound was dispensed into a 384-well black clear bottom plate (Nalge Nunc International, Rochester, N.Y.). Compound was diluted by the addition of DMEM media supplemented with 10% characterized fetal bovine serum (Invitrogen, Carlsbad, Calif.). Diluted compound was transferred to a 384-well black clear bottom plate. Two-thousand five hundred osteoclast precursors (Lonza, Walkersville, Md.) were added per well in growth media containing Receptor Activator of Nuclear Factor Kappa-beta ligand (RANKL) and M-CSF (R&D Systems, Minneapolis, Minn.). Plates were incubated for 7-14 days at 37 degrees Celsius, 5% CO2, and 95% humidity to allow differentiation of osteoclast precursors. At the end of the incubation period, 10 μL of supernatant from each well was transferred to a clear 384-well plate. Tartrate-resistant acid phosphatase activity in the supernatant samples was determined using an acid phosphatase assay kit (Sigma, St. Louis, Mo.). Absorbance was measured at 550 nm using a plate reader. Data was analyzed using Prism software (Graphpad, San Diego, Calif.) to calculate IC50 values.

[3] = target: T3, unphosphorylated c-FMS kinase (uFMS, Seq. ID no. 1) (Homo sapiens, UniProt P07333); test: uFMS kinase assay (ADP production coupled to pyruvate kinase/lactate dehydrogenase); assay type: biochemical; conditions: enzymatic assay, ATP 500 μM
T3 construct: purchased Millipore
T3 sequence (P07333 538-972): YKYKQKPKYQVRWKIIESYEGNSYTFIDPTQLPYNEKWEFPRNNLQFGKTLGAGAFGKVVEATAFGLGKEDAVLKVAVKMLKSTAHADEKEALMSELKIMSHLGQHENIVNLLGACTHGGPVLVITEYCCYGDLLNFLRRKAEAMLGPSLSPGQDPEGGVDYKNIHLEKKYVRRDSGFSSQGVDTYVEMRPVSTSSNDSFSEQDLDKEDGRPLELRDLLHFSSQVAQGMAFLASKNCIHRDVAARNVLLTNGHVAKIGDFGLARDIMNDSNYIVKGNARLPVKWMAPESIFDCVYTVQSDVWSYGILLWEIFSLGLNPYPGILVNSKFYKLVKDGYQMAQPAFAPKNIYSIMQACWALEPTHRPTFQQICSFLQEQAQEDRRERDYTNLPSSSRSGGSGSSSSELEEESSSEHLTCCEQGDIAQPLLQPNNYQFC
Experimental: uFMS Kinase (Seq. ID No. 1) Assay
In this assay, the oxidation of NADH (thus the decrease at A340 nm) was continuously monitored spectrophometrically. The reaction mixture (100 μL) contained FMS (purchased from Millipore) (10 nM), polyE4Y (1 mg/mL), MgCl2 (10 mM), pyruvate kinase (4 units), lactate dehydrogenase (0.7 units), phosphoenol pyruvate (1 mM), NADH (0.28 mM) and ATP (500 μM) in 90 mM Tris buffer containing 0.2% octyl-glucoside and 1% DMSO, pH 7.5. The inhibition reaction was started by mixing serial diluted test compound with the above reaction mixture. The absorption at 340 nm was monitored continuously for 4 hours at 30° C. on Synergy 2 plate reader. The reaction rate was calculated using the 3 to 4 h time frame. Percent inhibition was obtained by comparison of reaction rate with that of a control (i.e. in the absence of test compound). IC50 values were calculated from a series of percent inhibition values determined at a range of inhibitor concentrations using software routines as implemented in the GraphPad Prism software package.

[4] = target: T4, phospho-FMS in THP-1 cells (Homo sapiens, UniProt P07333); test: Phospho-FMS ELISA assay in THP-1 cells; assay type: cell-based; conditions: 4 hours compound, M-CSF stimulation 5 minutes, read-out: pFMS inhibition in THP-1 cells
T4 construct: endogenous in cells; host or cells: THP-1 (ATCC TIB-202)
T4 sequence (P07333 20-972): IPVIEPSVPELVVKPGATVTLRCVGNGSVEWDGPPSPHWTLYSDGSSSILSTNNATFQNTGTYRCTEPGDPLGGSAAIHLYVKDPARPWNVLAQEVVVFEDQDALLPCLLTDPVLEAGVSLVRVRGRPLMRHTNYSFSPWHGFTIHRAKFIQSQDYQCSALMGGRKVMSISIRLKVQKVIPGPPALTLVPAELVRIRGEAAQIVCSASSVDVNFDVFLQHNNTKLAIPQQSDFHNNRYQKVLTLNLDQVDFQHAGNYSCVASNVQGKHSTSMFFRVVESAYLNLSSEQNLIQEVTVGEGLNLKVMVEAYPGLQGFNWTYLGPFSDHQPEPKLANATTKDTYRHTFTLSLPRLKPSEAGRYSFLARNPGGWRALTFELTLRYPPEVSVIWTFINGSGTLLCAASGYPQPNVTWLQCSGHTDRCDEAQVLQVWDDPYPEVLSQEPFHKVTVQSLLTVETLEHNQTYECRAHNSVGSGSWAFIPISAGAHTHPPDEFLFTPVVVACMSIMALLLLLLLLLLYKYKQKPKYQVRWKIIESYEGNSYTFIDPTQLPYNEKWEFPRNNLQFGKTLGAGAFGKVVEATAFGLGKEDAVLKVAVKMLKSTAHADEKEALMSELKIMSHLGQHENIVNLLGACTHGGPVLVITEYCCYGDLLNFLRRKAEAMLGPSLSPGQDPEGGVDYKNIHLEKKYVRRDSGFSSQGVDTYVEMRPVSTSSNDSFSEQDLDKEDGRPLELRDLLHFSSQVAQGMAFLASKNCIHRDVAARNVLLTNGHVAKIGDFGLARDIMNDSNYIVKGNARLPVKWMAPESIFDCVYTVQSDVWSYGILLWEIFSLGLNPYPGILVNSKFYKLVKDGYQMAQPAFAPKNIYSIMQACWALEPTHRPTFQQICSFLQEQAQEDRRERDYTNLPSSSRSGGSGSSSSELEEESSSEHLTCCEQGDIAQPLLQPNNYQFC
Experimental: Cells were allowed to expand until reaching 70-95% confluency at which point they were subcultured or harvested for assay use.
In a separate 96 well black clear bottom plate, one hundred and fifty thousand THP-1 cells were added per well in 100 μL in assay medium. Fifty microliters of diluted compound was then added to the cells. Plates were incubated for 4 hours at 37 degrees Celsius, 5% CO2, 95% humidity. […] Lysates were prepared and used to perform the phospho-FMS ELISA as described by the manufacturer (catalog #DYC3268, R & D Systems, Minneapolis, Minn.). GraphPad Prism was used to calculate IC50 values obtained from data generated from the ELISA assay.

| Compound | IC50 [1] [nM] | IC50 [2] [nM] | IC50 (osteoclast precursors) [nM] | IC50 [3] [nM] | IC50 [4] [nM] | IC50 (M-NFS-60 cells) [nM] |
| --- | --- | --- | --- | --- | --- | --- |
| Cc1nc(-c2cnc(N3CCCC3)n(C)c2=O)ccc1Oc1ccnc(-c2cnn(C)c2)c1 [Example 16, 3-methyl-5-(6-methyl-5-((2-(1-methyl-1H-pyrazol-4-yl)pyridin-4-yl)oxy)pyridin-2-yl)-2-(pyrrolidin-1-yl)pyrimidin-4(3H)-one] | > 1000 | 100 to 1000 | < 10 | – | – | < 10 |
| Cc1cc(-c2cnc(NC(C)C)[nH]c2=O)ncc1Oc1ccnc(-c2cnn(C)c2)c1 [Example 18, 2-(isopropylamino)-5-(4-methyl-5-((2-(1-methyl-1H-pyrazol-4-yl)pyridin-4-yl)oxy)pyridin-2-yl)pyrimidin-4(3H)-one] | 10 to 100 | 10 to 100 | < 10 | – | – | < 10 |
| COC[C@H]1CCCN1c1ncc(-c2ccc(Oc3ccnc(-c4cnn(C)c4)c3)c(C)n2)c(=O)[nH]1 [Example 23, (R)-2-(2-(methoxymethyl)pyrrolidin-1-yl)-5-(6-methyl-5-((2-(1-methyl-1H-pyrazol-4-yl)pyridin-4-yl)oxy)pyridin-2-yl)pyrimidin-4(3H)-one] | > 1000 | > 1000 | 10 to 100 | 10 to 100 | – | 10 to 100 |
| Cc1nc(-c2cnc(N3CC[C@H](N(C)C)C3)[nH]c2=O)ccc1Oc1ccnc(-c2cnn(C)c2)c1 [Example 24, (S)-2-(3-(dimethylamino)pyrrolidin-1-yl)-5-(6-methyl-5-((2-(1-methyl-1H-pyrazol-4-yl)pyridin-4-yl)oxy)pyridin-2-yl)pyrimidin-4(3H)-one] | > 1000 | > 1000 | 100 to 1000 | 100 to 1000 | – | 100 to 1000 |
| COCCNc1ncc(-c2ccc(Oc3ccnc(-c4cnn(C)c4)c3)c(C)n2)c(=O)n1C [Example 26, 2-((2-methoxyethyl)amino)-3-methyl-5-(6-methyl-5-((2-(1-methyl-1H-pyrazol-4-yl)pyridin-4-yl)oxy)pyridin-2-yl)pyrimidin-4(3H)-one] | > 1000 | > 1000 | 10 to 100 | – | – | 10 to 100 |

Further lines, with some results ahead:

| IC50 [1] [nM] | IC50 [2] [nM] | IC50 (osteoclast precursors) [nM] | IC50 [3] [nM] | IC50 [4] [nM] | Compound | IC50 (M-NFS-60 cells) [nM] |
| --- | --- | --- | --- | --- | --- | --- |
| 100 to 1000 | > 1000 | 10 to 100 | – | – | COCCNc1ncc(-c2ccc(Oc3ccnc(-c4cnn(C)c4)c3)c(C)n2)c(=O)[nH]1 [Example 6, 2-((2-methoxyethyl)amino)-5-(6-methyl-5-((2-(1-methyl-1H-pyrazol-4-yl)pyridin-4-yl)oxy)pyridin-2-yl)pyrimidin-4(3H)-one] | 100 to 1000 |
| > 1000 | > 1000 | < 10 | 10 to 100 | 100 to 1000 | COC[C@@H](C)Nc1ncc(-c2ccc(Oc3ccnc(-c4cnn(C)c4)c3)c(C)n2)c(=O)[nH]1 [Example 22, (R)-2-((1-methoxypropan-2-yl)amino)-5-(6-methyl-5-((2-(1-methyl-1H-pyrazol-4-yl)pyridin-4-yl)oxy)pyridin-2-yl)pyrimidin-4(3H)-one] | 10 to 100 |
| 100 to 1000 | > 1000 | 10 to 100 | 10 to 100 | 10 to 100 | CCNc1ncc(-c2ccc(Oc3ccnc(-c4cnn(C)c4)c3)c(C)n2)c(=O)n1C [Example 25, 2-(ethylamino)-3-methyl-5-(6-methyl-5-((2-(1-methyl-1H-pyrazol-4-yl)pyridin-4-yl)oxy)pyridin-2-yl)pyrimidin-4(3H)-one] | 10 to 100 |
| 10 to 100 | 10 to 100 | 10 to 100 | < 10 | 10 to 100 | Cc1nc(-c2cnc(NC(C)(C)C)[nH]c2=O)ccc1Oc1ccnc(-c2cnn(C)c2)c1 [Example 28, 2-(tert-butylamino)-5-(6-methyl-5-((2-(1-methyl-1H-pyrazol-4-yl)pyridin-4-yl)oxy)pyridin-2-yl)pyrimidin-4(3H)-one] | 10 to 100 |
| 10 to 100 | 100 to 1000 | 10 to 100 | < 10 | 10 to 100 | Cc1nc(-c2cnc(NCC(C)(C)C)[nH]c2=O)ccc1Oc1ccnc(-c2cnn(C)c2)c1 [Example 29, 5-(6-methyl-5-((2-(1-methyl-1H-pyrazol-4-yl)pyridin-4-yl)oxy)pyridin-2-yl)-2-(neopentylamino)pyrimidin-4(3H)-one] | 10 to 100 |
| > 1000 | > 1000 | 10 to 100 | 10 to 100 | 10 to 100 | Cc1nc(-c2cnc(N3CCC(F)(F)C3)[nH]c2=O)ccc1Oc1ccnc(-c2cnn(C)c2)c1 [Example 30, 2-(3,3-difluoropyrrolidin-1-yl)-5-(6-methyl-5-((2-(1-methyl-1H-pyrazol-4-yl)pyridin-4-yl)oxy)pyridin-2-yl)pyrimidin-4(3H)-one] | 100 to 1000 |
